Values after ≈ are worked out from the molar mass of the structure shown.
How the values were obtained:
[1] = test system: Mycobacterium tuberculosis TN1618; assay type: cell-based
[2] = test system: Mycobacterium tuberculosis TN565; assay type: cell-based

SMILES | MIC TN1618 (RESISTANT) [1] | MIC TN565 (RESISTANT) [2]
CC(N)C(=O)N(C)C(C)C(NC(=O)C(Cc1ccccc1)NC(=O)NC(Cc1c[nH]c2ccccc12)C(=O)O)C(=O)NCC1CC(O)C(n2ccc(=O)[nH]c2=O)O1 [Compound 164, 1-[5′-[(2S,3S)-N^3-L-Alanyl-N^2-[N-[[(1S)-1-carboxy-2-indol-3-ylethyl]carbamoyl]-L-phenylalanyl]-N^3-methyl-2,3-diaminobutyramido]-3′,5′-dideoxy-α-L-arabinofuranosyl]uracil] | 10 µg/mL (≈ 12.7 µM) | 10 µg/mL (≈ 12.7 µM)
CC(N)C(=O)N(C)C(C)C(NC(=O)C(Cc1ccc(F)cc1)NC(=O)NC(Cc1c[nH]c2ccccc12)C(=O)O)C(=O)NCC1CC(O)C(n2ccc(=O)[nH]c2=O)O1 [Compound 158, 1-[5′-[(2S,3S)-N^3-L-Alanyl-N^2-[N-[[(1S)-1-carboxy-2-indol-3-ylethyl]carbamoyl]-L-4-fluorophenylalanyl]-N^3-methyl-2,3-diaminobutyramidol-3′,5′-dideoxy-α-L-arabinofuranosyl]uracil] | 10 µg/mL (≈ 12.4 µM) | 10 µg/mL (≈ 12.4 µM)
CC(N)C(=O)N(C)C(C)C(NC(=O)C(Cc1ccccc1)NC(=O)NC(Cc1ccc2ccccc2c1)C(=O)O)C(=O)NCC1CC(O)C(n2ccc(=O)[nH]c2=O)O1 [Compound 133, 1-[5′-[(2S,3S)-N^3-L-Alanyl-N^2-[N-[[(1S)-1-carboxy-2-naphthalenethyl]carbamoyl]-L-phenylalanyl]-N^3-methyl-2,3-diaminobutyramido]-3′,5′-dideoxy-α-L-arabinofuranosyl]uracil] | 10 µg/mL (≈ 12.5 µM) | 30 µg/mL (≈ 37.5 µM)
CC(N)C(=O)N(C)C(C)C(NC(=O)C(Cc1ccc(-c2ccccc2)cc1)NC(=O)NC(Cc1c[nH]c2ccccc12)C(=O)O)C(=O)NCC1CC(O)C(n2ccc(=O)[nH]c2=O)O1 [Compound 155, 1-[5′-[(2S,3S)-N^3-L-Alanyl-N^2-[N-[[(1S)-1-carboxy-2-indol-3-ylethyl)carbamoyl]-L-4-biphenylalanyl]-N^3-methyl-2,3-diaminobutyramidol-3′,5′-dideoxy-α-L-arabinofuranosyl]uracil] | 10 µg/mL (≈ 11.5 µM) | 10 µg/mL (≈ 11.5 µM)
CC(C)CC(N)C(=O)N(C)C(C)C(NC(=O)C(Cc1ccccc1)NC(=O)NC(Cc1c[nH]c2ccccc12)C(=O)O)C(=O)NCC1CC(O)C(n2ccc(=O)[nH]c2=O)O1 [Compound 159, 1-[5′-[(2S,3S)-N^2-[N-[[(1S)-1-Carboxy-2-indol-3-ylethyl]carbamoyl]-L-phenylalanyl]l-N^3-L-leucyl-N^3-methyl-2,3-diaminobutyramido]-3′,5′-dideoxy-α-L-arabinofuranosyl]uracil] | 10 µg/mL (≈ 12 µM) | 30 µg/mL (≈ 36.1 µM)
CC(C)C[C@H](NC(=O)N[C@@H](Cc1c[nH]c2ccccc12)C(=O)O)C(=O)N[C@H](C(=O)NC[C@H]1C[C@@H](O)[C@H](n2ccc(=O)[nH]c2=O)O1)[C@H](C)N(C)C(=O)CN [Compound 109] | 10 µg/mL (≈ 13.5 µM) | 10 µg/mL (≈ 13.5 µM)
CC(N)C(=O)N(C)C(C)C(NC(=O)C(Cc1ccc(C(F)(F)F)cc1)NC(=O)NC(Cc1c[nH]c2ccccc12)C(=O)O)C(=O)NCC1CC(O)C(n2ccc(=O)[nH]c2=O)O1 [Compound 146, 1-[5′-[(2S,3S)-N^3-L-Alanyl-N^2-[N-[[(1S)-1-carboxy-2-indol-3-ylethyl]carbamoyl]-L-4-(trifluoromethyl)phenylalanyl]-N^3-methyl-2,3-diaminobutyramido]-3′,5′-dideoxy-α-L-arabinofuranosyl]uracil] | 10 µg/mL (≈ 11.7 µM) | 10 µg/mL (≈ 11.7 µM)
CC(N)C(=O)N(C)C(C)C(NC(=O)C(Cc1ccc(F)cc1)NC(=O)NC(Cc1ccc(O)cc1)C(=O)O)C(=O)NCC1CC(O)C(n2ccc(=O)[nH]c2=O)O1 [Compound 157, 1-[5′-[(2S,3S)-N^3-L-Alanyl-N^2-[N-[[(1S)-1-carboxy-4-hydroxyphenethyl]carbamoyl]-L-4-fluorophenylalanyl]-N^3-methyl-2,3-diaminobutyramido]-3′,5′-dideoxy-α-L-arabinofuranosyl]uracil] | 10 µg/mL (≈ 12.7 µM) | 10 µg/mL (≈ 12.7 µM)
CSCCC(NC(=O)NC(Cc1ccc(O)cc1)C(=O)O)C(=O)NC(C(=O)NCC1CC(O)C(n2ccc(=O)[nH]c2=O)O1)C(C)N(C)C(=O)C(C)N [Compound 115, 1-[5′[(2S,3S)-N^3-L-Alanyl-N^2-[N-[[(1S)-1-carboxy-4-hydroxyphenethyl)-carbamoyl]-L-methionyl]-N^3-methyl-2,3-diaminobutyramido]-3′,5′-dideoxy-α-L-arabinofuranosyl]uracil] | 30 µg/mL (≈ 40 µM) | >30 µg/mL
C[C@H](NC(=O)N[C@@H](Cc1c[nH]c2ccccc12)C(=O)O)C(=O)N[C@H](C(=O)N/C=C1/C[C@@H](O)[C@H](n2ccc(=O)[nH]c2=O)O1)[C@H](C)N(C)C(=O)[C@@H](N)Cc1cccc(O)c1 [Pacidamycin 4, reference compound] | >30 µg/mL | >30 µg/mL
